Test results as given in patent US20040191312A1, “5-HT3 receptor agonists as neuroprotectors” (priority 2002, published 2004).

Key:
[1] = target: T1, 5-HT3 receptor (Homo sapiens, UniProt P46098); conditions: known 5-HT3 agonists; van Hooft et al. 1997, Morain et al. 1994; cited from earlier work
T1 sequence (P46098 24-478): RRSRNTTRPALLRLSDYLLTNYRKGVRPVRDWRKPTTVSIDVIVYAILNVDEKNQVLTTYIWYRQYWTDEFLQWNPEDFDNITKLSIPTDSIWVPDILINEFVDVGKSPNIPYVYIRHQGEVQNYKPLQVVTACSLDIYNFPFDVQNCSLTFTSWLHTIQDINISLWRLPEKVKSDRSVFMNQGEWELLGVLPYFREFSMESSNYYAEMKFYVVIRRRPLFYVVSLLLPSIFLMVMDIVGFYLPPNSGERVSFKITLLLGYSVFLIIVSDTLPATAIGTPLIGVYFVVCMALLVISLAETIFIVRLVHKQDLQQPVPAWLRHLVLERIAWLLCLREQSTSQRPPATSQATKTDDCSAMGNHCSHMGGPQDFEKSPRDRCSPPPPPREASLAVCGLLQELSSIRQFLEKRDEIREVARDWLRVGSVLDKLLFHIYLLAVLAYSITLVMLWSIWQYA

[2] = tested on: primary neuron cultures (OGD-induced cell death); test: LOPAC library screen using the oxygen-glucose deprivation (OGD) assay, ATP content as index of cell viability; conditions: for activity at 10 µM: Rattus norvegicus, Primary neuron, read-out: Activity (% Cells Alive)
Experimental: Primary neuron cultures were prepared as follows: Brain cortices from E18 rat brains were dissected in DPBS without calcium and magnesium. They were digested at 37° C. for 30 min with trypsin. The digestion was stopped by addition of MEM, 10% Fetal Bovine Serum (FBS)and 10% Horse Serum. DNase (10 U/ml) was also added. The tissues were mechanically triturated using a pipette. This step was repeated until all cells were dissociated and then they were filtered through a 70 um Nitrex mesh. The cells were counted and plated in poly ornithine-coated 96-well culture plates at 5×10^5 cells/well in MEM containing 10% HS and 10% FBS. Three days later, the medium was changed to neurobasal-serum free containing B27 and SATO (Sodium selenite 4 μg/ml, transferrrin 100 μg/ml, BSA 100 μg/ml, progesterone 62 μg/ml, putrescine 160 μg/ml). 5-Fluoro-2′deoxyuridine (FdU 30 μM) was added to inhibit the dividing microglia from the cultures. The culture medium was changed every 3 days leaving half volume of the old (conditioned) media and adding half volume of fresh media. All experiments were performed in 11-12 days-old neuronal cultures. The cells were maintained at 37° C. in a 5% CO2 humidified incubator.
The compounds from the LOPAC library, obtained from Sigma, were plated in 96-wells at 200 μM (20× the final concentration).
The neuronal cultures were pre-incubated with the compounds (10 μM final concentration) for 2 hours. The cells were then subjected to oxygen glucose deprivation (OGD) for 120 min at 37° C. in presence of the compounds of the library. Cultures were placed in an anaerobic chamber (Forma Scientific) and washed two times with balanced salt solution (116 mM NaCl, 5.4 mM KCl, 1 mM NaH2PO4, 1.8 mm CaCl2, 26.2 mM NaHCO3, 0.01 mM glycine, pH=7.4) lacking glucose and aerated with an anaerobic gas mix (85% N2/5% CO2/10% H2) to remove residual oxygen. Control cultures were kept in the original neurobasal media but were submitted to the anaerobic conditions. MK-801 (10 μM), a non competitive NMDA receptor antagonist was used to prevent cell death after OGD caused by activation of the NMDA receptors. To terminate the oxygen glucose deprivation, the cells were removed from the anaerobic chamber and the OGD media was removed and replaced with neurobasal media. The compounds were added back for an additional 20 hours.
Cells were lysed and ATP content was measured as an index for cell viability using a commercially available reagent (Cell Titter Glo from Promega). This assay generates a luminescent signal produced by the luciferase reaction.

Row | Structure (SMILES) | EC50 [1] | activity at 10 µM [2] | Activity (% Cells Alive) ([2]; 10 μM compound, 2 h pre-incubation, OGD 120 min, compound added back 20 h, ATP content (Cell Titter Glo))
1 | Cc1[nH]c2ccc(O)cc2c1CCN [2-methyl-5-HT, reference compound] | 5 to 8 µM | – | –
2 | N=C(N)NC(=N)Nc1cccc(Cl)c1 [Formula I, 1-(m-chlorophenyl)-biguanide] | 0.4 µM | 106 ± 6% | –
3 | N=C(N)NC(=N)Nc1ccccc1 [Formula II, N-phenyl-imidocarbonimidicdiamide] | 22 µM | 67 ± 25% | –
4 | Cc1[nH]c2ccc(O)cc2c1CCN.O=C(O)/C=C\C(=O)O [Formula III, 2-methyl-5-hydroxytryptaminemaleate] | – | – | 106 ± 25%
5 | CN1CCN(c2ccc3ccccc3n2)CC1 [Formula IV, 2-(1-(4-methyl)-piperazineyl)quinolinedimaleate] | – | 103 ± 30% | –
6 | NC1CCN(c2cccc(Cl)n2)CC1 [Formula V, 1-(6-chloro-2-pyridinyl)-4-piperidinamine] | – | 80 ± 27% | –
